The supplement of paper PMC4932681

Experiments:
Test in all cases: viability inhibition at highest dose (% inhibition); higher = more growth inhibition
BT-474 Tam1 = settings: 4-OH-tamoxifen in medium 1 µM; 72 h
Description: (§1)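 Percent inhibition of viability (CellTiter-Glo, 72 h) at the highest tested concentration (D5), normalised to DMSO (0%) and 100 µM benzethonium chloride (100%). Resistant lines and the 'in 1µM tamoxifen' arms were tested in 1 µM 4-OH-tamoxifen.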

BT-474 Tam2 = settings: 4-OH-tamoxifen in medium 1 µM; 72 h
Description: as §1

BT-474 = settings: 72 h
Description: as §1

MCF-7 Tam1 = settings: 4-OH-tamoxifen in medium 1 µM; 72 h
Description: as §1

MCF-7 = settings: 72 h
Description: as §1

T-47D Tam1 = settings: 4-OH-tamoxifen in medium 1 µM; 72 h
Description: as §1

T-47D Tam2 = settings: 4-OH-tamoxifen in medium 1 µM; 72 h
Description: as §1

T-47D = settings: 72 h
Description: as §1

ZR-75-1 Tam1 = settings: 4-OH-tamoxifen in medium 1 µM; 72 h
Description: as §1

ZR-75-1 Tam2 = settings: 4-OH-tamoxifen in medium 1 µM; 72 h
Description: as §1

ZR-75-1 = settings: 72 h
Description: as §1

SMILES	viability inhibition at highest dose (BT-474 Tam1)	viability inhibition at highest dose (BT-474 Tam2)	viability inhibition at highest dose (BT-474; 4-OH-tamoxifen in medium 0 µM)	viability inhibition at highest dose (BT-474; 4-OH-tamoxifen in medium 1 µM)	viability inhibition at highest dose (MCF-7 Tam1)	viability inhibition at highest dose (MCF-7; 4-OH-tamoxifen in medium 0 µM)	viability inhibition at highest dose (MCF-7; 4-OH-tamoxifen in medium 1 µM)	viability inhibition at highest dose (T-47D Tam1)	viability inhibition at highest dose (T-47D Tam2)	viability inhibition at highest dose (T-47D; 4-OH-tamoxifen in medium 0 µM)	viability inhibition at highest dose (T-47D; 4-OH-tamoxifen in medium 1 µM)	viability inhibition at highest dose (ZR-75-1 Tam1)	viability inhibition at highest dose (ZR-75-1 Tam2)	viability inhibition at highest dose (ZR-75-1; 4-OH-tamoxifen in medium 0 µM)	viability inhibition at highest dose (ZR-75-1; 4-OH-tamoxifen in medium 1 µM)
COc1cccc2c1C(=O)c1c(O)c3c(c(O)c1C2=O)C[C@@](O)(C(C)=O)C[C@@H]3O[C@H]1C[C@H](N)[C@H](O)[C@H](C)O1 [Daunorubicin] (drug 1000 nM)	72.8	32.7	53.8	95.4	32.2	78.9	87.8	67.9	68.4	72.4	73.5	64.3	70.7	63.6	55.3
Nc1ncn([C@H]2C[C@H](O)[C@@H](CO)O2)c(=O)n1 [Decitabine (Dacogen)] (drug 10000 nM)	-15.7	-4.48	-1.68	-2.07	-12.3	17.6	2.36	-9.55	-3.18	-15	-11.2	-4.61	-2.91	-8.36	-6.99
C[C@@H]1C[C@H]2[C@@H]3CCC4=CC(=O)C=C[C@]4(C)[C@@]3(F)[C@@H](O)C[C@]2(C)[C@@]1(O)C(=O)CO [Dexamethasone  (Decadron)] (drug 10000 nM)	3.71	-0.0711	-8.58	-20.8	-7.5	-5.26	18	1.63	10.6	-14.5	-19	3.7	12.7	-4.79	-6.32
CC(=O)O[C@@]12CO[C@@H]1C[C@H](O)[C@@]1(C)C(=O)[C@H](O)C3=C(C)[C@@H](OC(=O)[C@H](O)[C@@H](NC(=O)OC(C)(C)C)c4ccccc4)C[C@@](O)([C@@H](OC(=O)c4ccccc4)[C@H]21)C3(C)C [Docetaxel] (drug 1000 nM)	38.1	13.4	45.8	62.5	-2.6	31.6	24.3	27.5	37.3	44.4	8.26	6.28	1.01	-2.11	1.03
Cc1ccc(-n2nc(C(C)(C)C)cc2NC(=O)Nc2ccc(OCCN3CCOCC3)c3ccccc23)cc1 [Doramapimod (BIRB 796)] (drug 10000 nM)	21	-5.97	3.99	15	9.34	17.6	19.3	-1.73	17	6.71	-2.59	1.82	2.11	-1.07	0.647
CN1CCN(c2ccc3nc(-c4c(N)c5c(F)cccc5[nH]c4=O)[nH]c3c2)CC1 [Dovitinib (CHIR-258)] (drug 10000 nM)	-12.6	-10.4	-10.4	-18.2	-5.66	-32.5	-8.7	-4.27	4.9	-16.4	-8.28	0.00734	-6.37	-10.6	-9.07
COc1cccc2c1C(=O)c1c(O)c3c(c(O)c1C2=O)C[C@@](O)(C(=O)CO)C[C@@H]3O[C@H]1C[C@H](N)[C@H](O)[C@H](C)O1 [Doxorubicin] (drug 1000 nM)	68.5	16.9	65	90.4	56.6	76.9	66.1	77.1	72.7	73	76.2	76.4	73.5	62.2	82.4
Nc1ccccc1NC(=O)c1ccc(CNC(=O)OCc2cccnc2)cc1 [Entinostat] (drug 10000 nM)	79	53.2	61.4	83.9	5.52	62.3	40.4	60.3	10.9	66.4	36.6	28.8	27.5	33.7	10.2
CNC(=O)c1ccc(N2C(=S)N(c3ccc(C#N)c(C(F)(F)F)c3)C(=O)C2(C)C)cc1F [Enzalutamide (MDV 3100)] (drug 10000 nM)	7.43	14.2	-1.06	-10	5.74	-11.1	14.2	14	7.78	-6.05	1.03	6.65	5.9	-12.4	-0.801
Cn1cc(C2=C(c3cn(C4CCN(Cc5ccccn5)CC4)c4ccccc34)C(=O)NC2=O)c2ccccc21 [Enzastaurin] (drug 10000 nM)	-11.4	-1.15	-3.38	-20.9	-11.6	-11	-13.8	-9.95	-0.917	-15.8	-13.2	1.19	-0.91	-10.7	-19.1
Cc1c(C(=O)Nc2ccc(N3C[C@@H](C)O[C@@H](C)C3)nc2)cccc1-c1ccc(OC(F)(F)F)cc1 [Erismodegib (NVP-LDE225)] (drug 10000 nM)	15.9	19	18	41.1	15.1	23.2	14.6	4.09	19.2	19.8	8.8	13.1	7.11	-0.79	17.1
C#Cc1cccc(Nc2ncnc3cc(OCCOC)c(OCCOC)cc23)c1 [Erlotinib] (drug 10000 nM)	94.4	87.1	43	94.5	12.5	4.3	0.353	39.8	40	20.8	9	14.6	10.9	3.58	12.2
C[C@]12CC[C@@H]3c4ccc(OC(=O)N(CCCl)CCCl)cc4CC[C@H]3[C@@H]1CC[C@@H]2O [Estramustine] (drug 990000 nM)	-8.94	1.08	-9.96	-0.556	-4.18	-17	-12.1	-1.27	4.35	-27.1	-3.37	0.469	-3.72	-4.2	3.75
COc1cc([C@@H]2c3cc4c(cc3[C@@H](O[C@@H]3O[C@@H]5CO[C@@H](C)O[C@H]5[C@H](O)[C@H]3O)[C@H]3COC(=O)[C@H]23)OCO4)cc(OC)c1O [Etoposide] (drug 10000 nM)	14	-7.49	-4.44	27.7	-2.1	8.22	12.7	42.1	7.25	46.7	15.7	23	15.5	32.5	19.4
CO[C@H]1C[C@@H]2CC[C@@H](C)[C@@](O)(O2)C(=O)C(=O)N2CCCC[C@H]2C(=O)O[C@H]([C@H](C)C[C@@H]2CC[C@@H](OCCO)[C@H](OC)C2)CC(=O)[C@H](C)/C=C(\C)[C@@H](O)[C@@H](OC)C(=O)[C@H](C)C[C@H](C)/C=C/C=C/C=C/1C [Everolimus] (drug 100 nM)	22.1	15.8	15.8	11.4	15.6	47.5	34.3	28.2	25.9	29.1	24	34.2	38.4	35.9	32.7
C=C1C[C@@H]2[C@H](CC[C@]3(C)C(=O)CC[C@@H]23)[C@@]2(C)C=CC(=O)C=C12 [Exemestane] (drug 10000 nM)	0.0289	-0.955	0.814	0.09	3.68	19.4	7.88	2.32	19.2	-12.5	-2.8	4.25	-3.66	-15.1	-6.66
O=S(=O)(c1cccc2cnccc12)N1CCCNCC1 [Fasudil  (HA-1077)] (drug 50000 nM)	-5.55	-12.9	-7	-17.4	7.1	21	-0.98	2.59	20.1	-20.9	-12.4	3.21	-8.22	-7.56	-6.81
CC(C)(C)NC(=O)[C@H]1CC[C@H]2[C@@H]3CC[C@H]4NC(=O)C=C[C@]4(C)[C@H]3CC[C@]12C [Finasteride] (drug 10000 nM)	27.2	19.1	-6.68	-0.99	3.61	-0.974	6.29	14.8	18	-5.04	-8.61	-2.42	4.5	-8.28	7.55
CCCCCCCCc1ccc(CCC(N)(CO)CO)cc1 [Fingolimod] (drug 10000 nM)	96.8	95.2	94.4	96.6	11.9	94.6	71.4	62.4	59.1	69.4	91.9	45.3	55.5	40.8	52.5
O=c1[nH]c(=O)n([C@H]2C[C@H](O)[C@@H](CO)O2)cc1F [Floxuridine] (drug 10000 nM)	12.3	3.04	30.5	27.9	5.39	21	1.8	59	21.3	22.3	7.89	8.75	18.5	22.7	12.6
Nc1nc(F)nc2c1ncn2[C@@H]1O[C@H](CO)[C@@H](O)[C@@H]1O [Fludarabine] (drug 10000 nM)	2.46	4.57	-6.6	-12.5	-4.15	-24.7	10	20.4	-0.0717	-8	-12.2	-3.09	-3.77	-0.221	-4.24
O=c1[nH]cc(F)c(=O)[nH]1 [Fluorouracil] (drug 10000 nM)	1.71	0.595	-7.65	-2.76	8.84	35.1	4.26	5.54	9.76	13.4	10.1	8.57	17.1	16.4	15.2
CC(C)C(=O)Nc1ccc([N+](=O)[O-])c(C(F)(F)F)c1 [Flutamide] (drug 10000 nM)	6.08	6.26	-10.2	-11.4	-3.99	-18	15.9	6.02	11.2	0.571	-1.73	-0.0944	-5.1	-10.7	-3.17
COc1cc2c(Oc3ccc(NC(=O)C4(C(=O)Nc5ccc(F)cc5)CC4)cc3F)ccnc2cc1OCCCN1CCOCC1 [Foretinib (Foretinib)] (drug 1000 nM)	31.4	10.3	1.4	44.6	26.2	16.9	20.7	19	28.5	20.6	17.8	9.43	19.5	0.383	13.7
C[C@]12CC[C@@H]3c4ccc(O)cc4C[C@@H](CCCCCCCCC[S+]([O-])CCCC(F)(F)C(F)(F)F)[C@H]3[C@@H]1CC[C@@H]2O (stereo not given in full) [Fulvestrant] (drug 1000 nM)	-6.25	4.97	-5.27	-0.276	-0.218	31.4	17.5	12.9	8.69	1.98	-1.62	-1.86	-6.33	-18.5	-4.88
